Assays:
[1] = Encapsulation efficiency of small molecule pharmaceutical agents using excipient formulations; format: physicochemical; details: PEG-PPS system
Experimental: Samples used in Table 2 were prepared as follows. 10 mg of PEG-PPS was added to a 1.5 mL centrifuge tube with either 90 mg of PEG600 or DBU-HCl, and 2 mg of either paclitaxel or dexamethasone. This was heated at 95° C. for 15 min and mixed thoroughly. After cooling to RT, the blend was slowly diluted to 1 mL with distilled water. The free pharmaceutical agent was pelleted via centrifugation for 10 minutes at 10,000 g, and the pellet and supernatant were separately freeze dried, and analyzed in THF via gel permeation chromatography. Dexamethasone and paclitaxel results were quantified using a standard curve.

[2] = test system: caco-2 cells (enterocytes) and lymphatic endothelial cells (LECs); experiment: Transport in coculture model of gut lymphatic uptake; format: in vitro ADME; details: caco-2/LEC coculture
Experimental: Given that PEG-PPS nanoparticles can survive harsh conditions such as gastric pH, we contemplated their transport in the gut lymphatics, determining their potential to be processed by mechanisms related to fat uptake in the gut. This was measured using a coculture model of caco-2 cells (enterocytes) and lymphatic endothelial cells (LECs), allowing full characterization of uptake, packaging, and transit (collectively referred to as transport). It was determined that the surface characteristics of PPS-based nanoparticles can be engineered to provide for effective transport: for example, particles on which about 10% of the terminal chain groups were substituted with a carboxyl functionality were transported at a level 5-fold higher than that of equivalent particles lacking a surface charge. Other surface charging moieties, such as sulfates and sulfones, are similarly effective after optimization.

Row | Uptake / transport [2] | Compound | Encapsulation, method of the invention versus solvent dispersion [1]
1 | – | C[C@@H]1[C@H](O)[C@@H](C)/C=C/C=C/C=C/C=C/C=C/C=C/C=C/[C@H](O[C@@H]2O[C@H](C)[C@@H](O)[C@H](N)[C@@H]2O)C[C@@H]2O[C@](O)(C[C@@H](O)C[C@@H](O)[C@H](O)CC[C@@H](O)C[C@@H](O)CC(=O)O[C@H]1C)C[C@H](O)[C@H]2C(=O)O [amphotericin B] | more efficiently encapsulated via solvent dispersion
2 | – | CO[C@H]1C[C@@H]2CC[C@@H](C)[C@@](O)(O2)C(=O)C(=O)N2CCCC[C@H]2C(=O)O[C@H]([C@H](C)C[C@@H]2CC[C@@H](OCCO)[C@H](OC)C2)CC(=O)[C@H](C)/C=C(\C)[C@@H](O)[C@@H](OC)C(=O)[C@H](C)C[C@H](C)/C=C/C=C/C=C/1C [everolimus] | efficiently encapsulated
3 | not well transported | dextran | –
4 | – | CC(=O)O[C@H]1C(=O)[C@@]2(C)[C@H]([C@H](OC(=O)c3ccccc3)[C@]3(O)C[C@H](OC(=O)[C@H](O)[C@@H](NC(=O)c4ccccc4)c4ccccc4)C(C)=C1C3(C)C)[C@]1(OC(C)=O)CO[C@@H]1C[C@@H]2O [paclitaxel] | more efficiently encapsulated via the method of the invention

Reference: US9271929B2, “Block copolymers and uses thereof” (École Polytechnique Fédérale de Lausanne (EPFL), priority 2008, dated 2016)
